In this experiment the test system is MV-4-11 cells. The experiment can be described thus: Gene expression microarray analysis (Affymetrix PrimeView) and GSEA. Format: cell-based, human. More on the design: RFU PODN (11730768_x_at) / Fold change /veh PODN (11730768_x_at) / RFU LINC00158 (11744669_a_at) / Fold change /veh LINC00158 (11744669_a_at) / RFU DUSP10 (11751237_a_at) / Fold change /veh DUSP10 (11751237_a_at) / RFU ID3 (11757404_x_at) / Fold change /veh ID3 (11757404_x_at) / RFU PLEKHG5 (11737974_s_at) / Fold change /veh PLEKHG5 (11737974_s_at) / RFU LRRC4B (11730491_at) / Fold change /veh LRRC4B (11730491_at) / RFU GIMAP4 (11747438_a_at) / Fold change /veh GIMAP4 (11747438_a_at) / RFU KRT8 (11758183_x_at) / Fold change /veh KRT8 (11758183_x_at) / RFU CNN1 (11734310_a_at) / Fold change /veh CNN1 (11734310_a_at) / RFU VPS37D (11726825_at) / Fold change /veh VPS37D (11726825_at) / RFU C10orf10 (11716522_x_at) / Fold change /veh C10orf10 (11716522_x_at) / RFU KIR2DL2 /// KIR2DL4 /// KIR2DL5A /// KIR2DL5B /// KIR2DS1 /// KIR2DS2 /// KIR2DS3 /// KIR2DS4 /// KIR3DL3 /// KIR3DL3 /// KIR3DS1 (11738374_at) / Fold change /veh KIR2DL2 /// KIR2DL4 /// KIR2DL5A /// KIR2DL5B /// KIR2DS1 /// KIR2DS2 /// KIR2DS3 /// KIR2DS4 /// KIR3DL3 /// KIR3DL3 /// KIR3DS1 (11738374_at) / RFU C1QL1 (11718748_at) / Fold change /veh C1QL1 (11718748_at) / RFU TMPRSS4 (11747572_a_at) / Fold change /veh TMPRSS4 (11747572_a_at) / RFU HAMP (11756126_x_at) / Fold change /veh HAMP (11756126_x_at) / RFU RNFT2 (11725882_a_at) / Fold change /veh RNFT2 (11725882_a_at) / RFU NR4A2 (11747474_a_at) / Fold change /veh NR4A2 (11747474_a_at) / RFU ABCC12 (11746883_a_at) / Fold change /veh ABCC12 (11746883_a_at) / RFU TMEM136 (11760407_x_at) / Fold change /veh TMEM136 (11760407_x_at) / RFU CLDN22 /// WWC2 (11732394_at) / Fold change /veh CLDN22 /// WWC2 (11732394_at) / RFU HLA-DPB1 (11760878_x_at) / Fold change /veh HLA-DPB1 (11760878_x_at) / RFU SPINT1 (11716480_a_at) / Fold change /veh SPINT1 (11716480_a_at) / RFU GAP43 (11754022_s_at) / Fold change /veh GAP43 (11754022_s_at) / RFU A4GNT (11735810_at) / Fold change /veh A4GNT (11735810_at) / RFU PRB3 (11715151_x_at) / Fold change /veh PRB3 (11715151_x_at) / RFU TUBB4B (11761932_at) / Fold change /veh TUBB4B (11761932_at) / RFU CAPN14 (11732068_a_at) / Fold change /veh CAPN14 (11732068_a_at) / RFU TMCC2 (11721928_a_at) / Fold change /veh TMCC2 (11721928_a_at) / RFU IRGQ (11745062_a_at) / Fold change /veh IRGQ (11745062_a_at) / RFU FAM174B (11720279_a_at) / Fold change /veh FAM174B (11720279_a_at) / RFU TMPRSS4 (11748680_a_at) / Fold change /veh TMPRSS4 (11748680_a_at) / RFU FAM212B (11763350_a_at) / Fold change /veh FAM212B (11763350_a_at) / RFU PLEKHG5 (11743358_a_at) / Fold change /veh PLEKHG5 (11743358_a_at) / RFU ZSCAN30 (11745921_a_at) / Fold change /veh ZSCAN30 (11745921_a_at) / RFU CMKLR1 (11741424_a_at) / Fold change /veh CMKLR1 (11741424_a_at) / RFU LOC101060620 /// MAPK8IP1 (11723275_at) / Fold change /veh LOC101060620 /// MAPK8IP1 (11723275_at) / RFU SPTSSB (11747773_x_at) / Fold change /veh SPTSSB (11747773_x_at) / RFU PRSS12 (11739890_at) / Fold change /veh PRSS12 (11739890_at) / RFU BIN1 (11741810_x_at) / Fold change /veh BIN1 (11741810_x_at) / RFU WNT11 (11732464_a_at) / Fold change /veh WNT11 (11732464_a_at) / RFU C10orf10 (11716521_a_at) / Fold change /veh C10orf10 (11716521_a_at) / RFU C5orf56 (11738089_at) / Fold change /veh C5orf56 (11738089_at) / RFU CYB561 (11721691_x_at) / Fold change /veh CYB561 (11721691_x_at) / RFU ANKRD19P (11752326_a_at) / Fold change /veh ANKRD19P (11752326_a_at) / RFU OR2T12 /// OR2T33 /// OR2T8 (11738714_s_at) / Fold change /veh OR2T12 /// OR2T33 /// OR2T8 (11738714_s_at) / RFU VCAN (11748164_a_at) / Fold change /veh VCAN (11748164_a_at) / RFU JSRP1 (11732532_at) / Fold change /veh JSRP1 (11732532_at) / RFU KRTAP10-11 (11738290_x_at) / Fold change /veh KRTAP10-11 (11738290_x_at) / RFU MYO3A (11730013_a_at) / Fold change /veh MYO3A (11730013_a_at) / RFU EBF3 (11725865_a_at) / Fold change /veh EBF3 (11725865_a_at) / RFU CAMK2N1 (11719241_x_at) / Fold change /veh CAMK2N1 (11719241_x_at) / RFU C5orf56 (11738088_a_at) / Fold change /veh C5orf56 (11738088_a_at) / RFU OLFML3 (11715873_a_at) / Fold change /veh OLFML3 (11715873_a_at) / RFU LOC100653217 /// NTM (11731650_a_at) / Fold change /veh LOC100653217 /// NTM (11731650_a_at) / RFU MAPK11 (11762145_a_at) / Fold change /veh MAPK11 (11762145_a_at) / RFU FIZ1 (11724087_x_at) / Fold change /veh FIZ1 (11724087_x_at) / RFU OASL (11726364_x_at) / Fold change /veh OASL (11726364_x_at) / RFU SOX15 (11748057_x_at) / Fold change /veh SOX15 (11748057_x_at) / RFU CD79A (11719716_a_at) / Fold change /veh CD79A (11719716_a_at) / RFU HIST1H1D (11736915_at) / Fold change /veh HIST1H1D (11736915_at) / RFU CASKIN2 (11723855_a_at) / Fold change /veh CASKIN2 (11723855_a_at) / RFU LOC730098 (11760151_x_at) / Fold change /veh LOC730098 (11760151_x_at) / RFU OR4N2 (11742367_at) / Fold change /veh OR4N2 (11742367_at) / RFU PRRT2 (11749266_a_at) / Fold change /veh PRRT2 (11749266_a_at) / RFU SNX32 (11753110_a_at) / Fold change /veh SNX32 (11753110_a_at) / RFU CDHR5 (11726645_a_at) / Fold change /veh CDHR5 (11726645_a_at) / RFU RCAN1 (11760418_a_at) / Fold change /veh RCAN1 (11760418_a_at) / RFU FAM167A (11723789_a_at) / Fold change /veh FAM167A (11723789_a_at) / RFU FAM26E (11764081_at) / Fold change /veh FAM26E (11764081_at) / RFU ISYNA1 (11749810_s_at) / Fold change /veh ISYNA1 (11749810_s_at) / RFU ACY1 (11761880_at) / Fold change /veh ACY1 (11761880_at) / RFU 11764098_at / Fold change /veh 11764098_at / RFU SAMD14 (11745864_x_at) / Fold change /veh SAMD14 (11745864_x_at) / RFU NPB (11741838_a_at) / Fold change /veh NPB (11741838_a_at) / RFU TMPRSS6 (11731388_a_at) / Fold change /veh TMPRSS6 (11731388_a_at) / RFU KRTAP10-2 (11738614_at) / Fold change /veh KRTAP10-2 (11738614_at) / RFU ARHGAP8 /// PRR5-ARHGAP8 (11727945_x_at) / Fold change /veh ARHGAP8 /// PRR5-ARHGAP8 (11727945_x_at) / RFU KRTAP5-7 /// NADSYN1 (11734609_at) / Fold change /veh KRTAP5-7 /// NADSYN1 (11734609_at) / RFU RASL12 (11751679_a_at) / Fold change /veh RASL12 (11751679_a_at) / RFU CDKN2B (11736163_a_at) / Fold change /veh CDKN2B (11736163_a_at) / RFU PRF1 (11729649_at) / Fold change /veh PRF1 (11729649_at) / RFU, ZNF638 /// ZNF638-IT1 / Fold change vs veh, ZNF638 /// ZNF638-IT1 / RFU, PANK3 / Fold change vs veh, PANK3 / RFU, SH3YL1 / Fold change vs veh, SH3YL1 / RFU, ZEB2 / Fold change vs veh, ZEB2 / RFU, NRIP1 / Fold change vs veh, NRIP1 / RFU, PTTG1IP / Fold change vs veh, PTTG1IP / RFU, CAPN2 / Fold change vs veh, CAPN2 / RFU, MED14 / Fold change vs veh, MED14 / RFU, SNORA58 / Fold change vs veh, SNORA58 / RFU, C1orf63 / Fold change vs veh, C1orf63 / RFU, LRRFIP1 / Fold change vs veh, LRRFIP1 / RFU, NDUFAF7 / Fold change vs veh, NDUFAF7 / RFU, SLC12A2 / Fold change vs veh, SLC12A2 / RFU, IBTK / Fold change vs veh, IBTK / RFU, ESF1 / Fold change vs veh, ESF1 / Fold change vs veh, TMEM50B / RFU, TAOK1 / Fold change vs veh, TAOK1 / RFU, ACBD3 / Fold change vs veh, ACBD3 / RFU, TMA16 / Fold change vs veh, TMA16 / RFU, RWDD3 / Fold change vs veh, RWDD3 / RFU, BCAT1 / Fold change vs veh, BCAT1 / RFU, EDEM3 / Fold change vs veh, EDEM3 / RFU, TMEM33 / Fold change vs veh, TMEM33 / RFU, WDR75 / Fold change vs veh, WDR75 / RFU, AHCTF1 / Fold change vs veh, AHCTF1 / RFU, TFRC / Fold change vs veh, TFRC / RFU, ZDHHC17 / Fold change vs veh, ZDHHC17 / RFU, NOM1 / Fold change vs veh, NOM1 / RFU, ARL8B / Fold change vs veh, ARL8B / RFU, ZBTB11 / Fold change vs veh, ZBTB11 / RFU, TAMM41 / Fold change vs veh, TAMM41 / RFU, KIAA1704 /// LOC100996395 / Fold change vs veh, KIAA1704 /// LOC100996395 / RFU, ING1 / Fold change vs veh, ING1 / RFU, TRMT61B / Fold change vs veh, TRMT61B / RFU, FUBP3 / Fold change vs veh, FUBP3 / RFU, TP53 / Fold change vs veh, TP53 / RFU, TNKS2 / Fold change vs veh, TNKS2 / RFU, ZFP14 / Fold change vs veh, ZFP14 / RFU, ACTR2 / Fold change vs veh, ACTR2 / RFU, PPP3R1 / Fold change vs veh, PPP3R1 / RFU, PIK3R1 / Fold change vs veh, PIK3R1 / RFU, HNRNPA1 / Fold change vs veh, HNRNPA1 / RFU, RNF170 / Fold change vs veh, RNF170 / RFU, ZNF28 / Fold change vs veh, ZNF28 / RFU, RNGTT / Fold change vs veh, RNGTT / RFU, OGT / Fold change vs veh, OGT / RFU, BRD1 / Fold change vs veh, BRD1 / RFU, MARS / Fold change vs veh, MARS / RFU, ZNF655 / Fold change vs veh, ZNF655 / RFU, FAHD1 / Fold change vs veh, FAHD1 / RFU, BDP1 / Fold change vs veh, BDP1 / RFU, LRRCC1 / Fold change vs veh, LRRCC1 / RFU, ARID1A / Fold change vs veh, ARID1A / RFU, ZNF146 / Fold change vs veh, ZNF146 / RFU, ZNF330 / Fold change vs veh, ZNF330 / RFU, GPN3 / Fold change vs veh, GPN3 / RFU, C9orf123 / Fold change vs veh, C9orf123 / RFU, N4BP2L2 / Fold change vs veh, N4BP2L2 / RFU, ARFIP1 / Fold change vs veh, ARFIP1 / RFU, FAM179B / Fold change vs veh, FAM179B / RFU, BCL10 / Fold change vs veh, BCL10 / RFU, UHRF1BP1L / Fold change vs veh, UHRF1BP1L / RFU, BET1 / Fold change vs veh, BET1 / RFU, CNOT2 / Fold change vs veh, CNOT2 / RFU, ZNF268 / Fold change vs veh, ZNF268 / Fold change vs veh, ZNF507 / RFU, DGCR2 / Fold change vs veh, DGCR2 / RFU, WDSUB1 / Fold change vs veh, WDSUB1 / Fold change vs veh, HSP90B1 /// MIR3652 / RFU, ADSS / Fold change vs veh, ADSS / RFU, GK / Fold change vs veh, GK / RFU, ZNF148 / Fold change vs veh, ZNF148 / RFU, TAF9 / Fold change vs veh, TAF9 / RFU, SLC1A5 / Fold change vs veh, SLC1A5 / RFU, SLMO2 / Fold change vs veh, SLMO2 / RFU, ABCC4 / Fold change vs veh, ABCC4 / RFU, LOC101060439 /// RAP1B / Fold change vs veh, LOC101060439 /// RAP1B / RFU, RFX7 / Fold change vs veh, RFX7 / RFU, GTPBP10 / Fold change vs veh, GTPBP10 / RFU, CNEP1R1 / Fold change vs veh, CNEP1R1 / RFU, BIVM-ERCC5 /// ERCC5 / Fold change vs veh, BIVM-ERCC5 /// ERCC5 / RFU, ILF3 / Fold change vs veh, ILF3 / RFU 11762660_at / Fold change /veh 11762660_at / RFU VCAN (11757783_s_at) / Fold change /veh VCAN (11757783_s_at) / RFU DDX43 (11728927_at) / Fold change /veh DDX43 (11728927_at) / RFU KRT8 (11758188_x_at) / Fold change /veh KRT8 (11758188_x_at) / RFU NKD1 (11759106_at) / Fold change /veh NKD1 (11759106_at) / RFU SRD5A1 (11742802_a_at) / Fold change /veh SRD5A1 (11742802_a_at) / RFU TPSAB1 /// TPSB2 (11721975_s_at) / Fold change /veh TPSAB1 /// TPSB2 (11721975_s_at) / RFU GSTM3 (11746129_a_at) / Fold change /veh GSTM3 (11746129_a_at) / RFU IL23R (11737362_x_at) / Fold change /veh IL23R (11737362_x_at) / RFU TMEM51 (11727254_a_at) / Fold change /veh TMEM51 (11727254_a_at) / RFU PIWIL2 (11732686_x_at) / Fold change /veh PIWIL2 (11732686_x_at) / RFU ORM1 (11744905_x_at) / Fold change /veh ORM1 (11744905_x_at) / RFU CCDC152 (11743942_at) / Fold change /veh CCDC152 (11743942_at) / RFU ECM1 (11717891_a_at) / Fold change /veh ECM1 (11717891_a_at) / RFU IL23R (11748794_a_at) / Fold change /veh IL23R (11748794_a_at) / RFU TNFAIP8L3 (11732012_x_at) / Fold change /veh TNFAIP8L3 (11732012_x_at) / RFU MBOAT4 (11741988_at) / Fold change /veh MBOAT4 (11741988_at) / RFU 11764193_at / Fold change /veh 11764193_at / RFU TMEM53 (11763286_at) / Fold change /veh TMEM53 (11763286_at) / RFU MAGEB2 (11727129_at) / Fold change /veh MAGEB2 (11727129_at) / RFU TMEM200A (11744735_a_at) / Fold change /veh TMEM200A (11744735_a_at) / RFU CCDC152 (11751479_a_at) / Fold change /veh CCDC152 (11751479_a_at) / RFU FAM211A (11726209_a_at) / Fold change /veh FAM211A (11726209_a_at) / RFU RGS16 (11746705_a_at) / Fold change /veh RGS16 (11746705_a_at) / RFU VCAN (11755009_s_at) / Fold change /veh VCAN (11755009_s_at) / RFU RHOB (11743442_s_at) / Fold change /veh RHOB (11743442_s_at) / RFU RGS16 (11720943_a_at) / Fold change /veh RGS16 (11720943_a_at) / RFU RGS16 (11720944_at) / Fold change /veh RGS16 (11720944_at) / RFU, VPS4B / Fold change vs veh, VPS4B / RFU, CREB1 / Fold change vs veh, CREB1 / RFU, DNAJC13 / Fold change vs veh, DNAJC13 / RFU, GNAQ / Fold change vs veh, GNAQ / RFU, CDK5R1 / Fold change vs veh, CDK5R1 / RFU, ZRANB3 / Fold change vs veh, ZRANB3 / RFU, CUL4A / Fold change vs veh, CUL4A / RFU, CCNY / Fold change vs veh, CCNY / RFU, UFL1 / Fold change vs veh, UFL1 / RFU, COG3 / Fold change vs veh, COG3 / RFU, DIAPH2 / Fold change vs veh, DIAPH2 / RFU, SKA2 / Fold change vs veh, SKA2 / RFU, AFF3 / Fold change vs veh, AFF3 / RFU, LMF1 / Fold change vs veh, LMF1 / RFU, IPO11 / Fold change vs veh, IPO11 / RFU, DFFB / Fold change vs veh, DFFB / RFU, FOXP1 / Fold change vs veh, FOXP1 / RFU, CARD8 / Fold change vs veh, CARD8 / RFU, STRN3 / Fold change vs veh, STRN3 / RFU, ADK / Fold change vs veh, ADK / RFU, RASSF2 / Fold change vs veh, RASSF2 / RFU, WIPF1 / Fold change vs veh, WIPF1 / RFU, LARP1B / Fold change vs veh, LARP1B / RFU, RASA1 / Fold change vs veh, RASA1 / RFU, RB1 / Fold change vs veh, RB1 / RFU, PPFIA1 / Fold change vs veh, PPFIA1 / RFU, MAT2A / Fold change vs veh, MAT2A / RFU, CCT5 / Fold change vs veh, CCT5 / RFU, WDR92 / Fold change vs veh, WDR92 / RFU, CUX1 / Fold change vs veh, CUX1 / RFU, TTC7A / Fold change vs veh, TTC7A / RFU, TMEM135 / Fold change vs veh, TMEM135 / RFU, DEPTOR / Fold change vs veh, DEPTOR / RFU, CPM / Fold change vs veh, CPM / RFU, DNAJB6 / Fold change vs veh, DNAJB6 / RFU, CACNA2D3 / Fold change vs veh, CACNA2D3 / RFU, DTX4 / Fold change vs veh, DTX4 / RFU, TFCP2 / Fold change vs veh, TFCP2 / RFU, GMCL1 /// GMCL1P1 / Fold change vs veh, GMCL1 /// GMCL1P1 / RFU, AEBP2 / Fold change vs veh, AEBP2 / RFU, SNHG1 /// SNORD22 /// SNORD25 /// SNORD26 /// SNORD27 /// SNORD28 /// SNORD29 /// SNORD31 / Fold change vs veh, SNHG1 /// SNORD22 /// SNORD25 /// SNORD26 /// SNORD27 /// SNORD28 /// SNORD29 /// SNORD31 / Fold change (Aza/veh), C12orf56 (ProbeSet 11735607_a_at) / Fold change (ACY-1035/veh), C12orf56 (ProbeSet 11735607_a_at) / Fold change (Aza/veh), FGFR1OP (ProbeSet 11751329_s_at) / Fold change (ACY-1035/veh), FGFR1OP (ProbeSet 11751329_s_at) / Fold change (Aza/veh), VPS36 (ProbeSet 11739960_a_at) / Fold change (ACY-1035/veh), VPS36 (ProbeSet 11739960_a_at) / RFU SYPL1 (11715823_x_at) / Fold change /veh SYPL1 (11715823_x_at) / RFU IGFBP7 (11715501_s_at) / Fold change /veh IGFBP7 (11715501_s_at) / RFU REEP3 (11722064_at) / Fold change /veh REEP3 (11722064_at) / RFU IGLL1 (11728026_x_at) / Fold change /veh IGLL1 (11728026_x_at): dose or concentration left out as unconfirmed. The settings on record: ProbeSet 11728676_at; LIST B.

The structures appear in SMILES notation.

Regarding `Nc1ncn([C@@H]2O[C@H](CO)[C@@H](O)[C@H]2O)c(=O)n1` [azacitidine], the “Fold change vs veh, MED14” value is given as 0.97.

The values are drawn from paper PMC5218480 (PLoS ONE, 2017).
